Measured values: patent US6506901B2, “Substituted 2-(S)-hydroxy-3-(piperidin-4-yl-methylamino)-propyl ethers and substituted 2-aryl-2-(R)-hydroxy-1-(piperidin-4-yl-methyl)-ethylamine β-3 adrenergic receptor agonists” (Wyeth, priority 2000, dated 2003)
Structures can show the parent of a compound that is named as a salt.

How the values were obtained:
β3 human transgenic mice = assay: Thermogenesis (Oxymax indirect calorimeter) in β3 transgenic (Tg) mice; assay type: in vivo, mice (FVB); settings: percent increase in thermogenesis over baseline; for change in vivo at 10 mg/kg: Mus musculus, ip, IP 10 mg/kg
Source text: Evaluation in β3 Knockout(KO) and β3 Transgenic(Tg) Mice: The ability of compounds of this invention to treat or inhibit disorders related to insulin resistance or hyperglycemia was also confirmed with representative compounds of this invention in an in vivo standard pharmacological test procedure which compared thermogenesis in transgenic mice (Tg mice) and β3-knockout mice (KO mice).
β3-Adrenergic receptor knockout mice and β3 human transgenic mice are created on an inbred FVB background (Susulic, V. S., et.al., J. Biol. Chem., 1995, 270 (49), 29483-29492). Female FVB β3 transgenic and β3 knockout mice were used to determine in vivo activity and selectivity of β3 agonists. […] These compounds were also selective in being 100-fold less responsive and partial agonists when tested in β1 and β2 transfected CHO cells. Compounds were tested for increased thermogenesis using the Oxymax indirect calorimeter (Columbus Instruments, Columbus, Ohio). Fed animals were placed in chambers for 3 hours to obtain baseline O2 and CO2 values. Eight fed mice were weighed in pairs and placed in 4 chambers, two per chamber. The relative gas content of each chamber was sampled and recorded at 10 to 12 minute intervals. For each sample, energy expenditure values were calculated by the Oxymax and expressed as kcal/hr. After 3 hours of baseline measurement, the mice were removed, treated and replaced in the chambers. The β3 agonists were injected at doses between 0.1 and 20 mg/kg i.p. and between 1.0 and 30 mg/kg for oral administration. Compounds in 10 mM or 10 mg/ml DMSO solutions were suspended in 0.5% methylcellulose: 0.1% tween-80 and injected i.p. or administered by oral gavage. Some compounds were suspended in 5.0% tween-80 for oral administration. Post-treatment kcal/hr values were taken between 40 minutes and 2.5 hours later. The 6 to 10 sample sections of the pre-treatment and post-treatment periods, which appear to best represent stable resting thermogenesis, were selected. Each of these sample values was corrected for body weight and used such that each pair of mice serves as its own baseline for both T test and percent increase in thermogenesis calculations. An ANOVA and a one sided T test (H1: Post>Pre) are performed using the SAS software modified to down weight extreme values. In a separate set of calculations, values that appear to be too high to represent resting thermogenesis are discarded (activity monitor sampling associated spikes in thermogenesis with ambulatory activity). The mean baseline value for each chamber is subtracted from mean post-treatment value for that chamber. This baseline-subtracted value is divided by the mean baseline value and multiplied by 100 to obtain a percent increase in thermogenesis for each chamber. The combined mean percent increase, standard deviation, and standard error of the mean for each chamber is calculated. Compounds were considered active if they were able to produce a statistically significant 15% increase in thermogenesis in β3 transgenic mice and no significant increase in β3 knockout mice.

human β3 receptors = target: T1, human β3 receptors (Homo sapiens, UniProt P13945); assay: cAMP response (SPA) in CHO cells expressing cloned human β3 adrenergic receptor; assay type: cell-based; settings: for EC50: CHO cells expressing human β3 receptor, cAMP, 30 min incubation, 10^−9 M to 10^−5 M; for IA(β3): maximal response compared to the maximal response of isoproterenol at 10^−5 M
T1 construct: Full length β3 AR clones (402 amino acids) containing the last 6 amino acids of hβ3—AR; expressed in transfected cells; host or cells: CHO cells
T1 sequence (P13945 whole entry): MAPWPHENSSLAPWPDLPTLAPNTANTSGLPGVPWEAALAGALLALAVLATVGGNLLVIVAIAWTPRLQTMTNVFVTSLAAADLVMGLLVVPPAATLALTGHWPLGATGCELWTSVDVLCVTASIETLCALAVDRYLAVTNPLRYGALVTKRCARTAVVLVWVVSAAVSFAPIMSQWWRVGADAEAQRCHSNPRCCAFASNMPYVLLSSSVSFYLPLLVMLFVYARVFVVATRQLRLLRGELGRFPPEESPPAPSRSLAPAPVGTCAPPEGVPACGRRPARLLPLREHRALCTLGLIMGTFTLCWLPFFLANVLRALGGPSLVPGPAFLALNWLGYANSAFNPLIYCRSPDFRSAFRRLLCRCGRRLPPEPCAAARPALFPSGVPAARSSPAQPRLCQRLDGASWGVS
In short: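 CHO cells transfected with cloned human β3-AR were incubated with compound at 37° C for 30 min, stopped with 0.2N HCl and neutralized. cAMP was measured by SPA. Activity is expressed as per cent of the maximal isoproterenol (10^−5 M) response.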

**Q.** With `O/N=C1\c2ccccc2-c2c(OC[C@@H](O)CNCC3CCN(c4ccnc5cc(C(F)(F)F)ccc45)CC3)cccc21` (as salt: hydrochloride) [Example 4, 4-((2S)-2-Hydroxy-3-{[1-(7-trifluoromethyl-quinolin-4-yl)-piperidin-4-ylmethyl]-amino}-propoxy)-fluoren-9-one Oxime] as the compound, how does the melting point read?
**A.** 171 °C

**Q.** With `O[C@@H](CNCC1CCN(c2cc(C(F)(F)F)ccn2)CC1)COc1cccc2[nH]c3ccccc3c12` [Example 5, (2S)-1-(9H-Carbazol-4-yloxy)-3-[(4′-trifluoromethyl-3,4,5,6-tetrahydro-2H-[1,2′]bipyridinyl-4-ylmethyl)-amino]-propan-2-ol] as the compound, how does the melting point read?
**A.** 137 to 138 °C

**Q.** For `O[C@@H](CNCC1CCN(CCC(F)(F)F)CC1)COc1cccc2[nH]c3ccccc3c12` [Example 10, (2S)-1-(9H-Carbazol-4-yloxy)-3-{[1-(3,3,3-trifluoro-propyl)-piperidin-4-ylmethyl]-amino}-propan-2-ol], which change in vivo at 10 mg/kg (β3 human transgenic mice; mouse type hetero) is on record?
**A.** -15%

**Q.** Which melting point does the source give for `O[C@@H](CNCC1CCN(CCC(F)(F)F)CC1)COc1ccc(Br)c2[nH]c3ccccc3c12` [Example 16, (2S)-1-(1-Bromo-9H-carbazol-4-yloxy)-3-{[1-(3,3,3-trifluoro-propyl)-piperidin-4-ylmethyl]-amino}-propan-2-ol] here?
**A.** 79 °C

**Q.** For `OCCCCCCCCCCCCN1CCC(CNC[C@H](O)COc2cccc3[nH]c4ccccc4c23)CC1` [Example 30, 12-(4-{[(2S)-3-(9H-Carbazol-4-yloxy)-2-hydroxy-propylamino]-methyl}-piperidin-1-yl)-dodecan-1-ol], which EC50 (human β3 receptors) is on record?
**A.** 1240 nM

**Q.** What about the “IA(β3)” value (human β3 receptors) of the same compound?
**A.** 0.53

**Q.** What about the melting point of the same compound?
**A.** 110 °C

**Q.** With `O=C(O)c1cccc(NC(=O)N2CCC(CNC[C@H](O)COc3cccc4[nH]c5ccccc5c34)CC2)c1` [Example 51, 3-[(4-{[(2S)-3-(9H-Carbazol-4-yloxy)-2-hydroxy-propylamino]-methyl}-piperidine-1-carbonyl)-amino]-benzoic Acid] as the compound, how does the melting point read?
**A.** 238 to 240 °C (dec.)

**Q.** Which change in vivo at 10 mg/kg (β3 human transgenic mice; mouse type hetero) does the source give for `CCCCCCNC(=O)Nc1ccc(S(=O)(=O)N2CCC(CNC[C@H](O)COc3cccc4[nH]c5ccccc5c34)CC2)cc1` [Example 58, 1-[4-(4-{[(2S)-3-(9H-Carbazol-4-yloxy)-2-hydroxy-propylamino]-methyl}-piperidine-1-sulfonyl)-phenyl]-3-hexyl-urea] here?
**A.** -3%

**Q.** With `CCCCCCNC(=O)Nc1ccc(S(=O)(=O)N2CCC(CNC[C@H](O)COc3ccc(O)cc3)CC2)cc1` [Example 59, 1-Hexyl-3-[4-(4-{[(2S)-2-hydroa-3-(4-hydroxy-phenoxy)-propylamino]-methyl}-piperidine-1-sulfonyl)-phenyl]-urea] as the compound, how does the change in vivo at 10 mg/kg (β3 human transgenic mice; mouse type homo) read?
**A.** 5%

**Q.** With `O=C(Nc1ccccc1)Nc1ccc(S(=O)(=O)N2CCC(CNC[C@H](O)COc3ccc(O)cc3)CC2)cc1` [Example 63, 1-[4-(4-{[(2S)-2-Hydroxy-3-(4-hydroxy-phenoxy)-propylamino]-methyl}-piperidine-1-sulfonyl)-phenyl]-3-phenyl-urea] as the compound, how does the change in vivo at 10 mg/kg (β3 human transgenic mice; mouse type homo) read?
**A.** 3%

**Q.** What does the source list for `O=C(Nc1ccc(S(=O)(=O)N2CCC(CNC[C@H](O)COc3ccc(O)cc3)CC2)cc1)Nc1ccccn1` [Example 66, 1-[4-(4-{[(2S)-2-Hydroxy-3-(4-hydroxy-phenoxy)-proplamino]-methyl}-piperidine-1-sulfonyl)-phenyl]-3-pyridin-2-yl-urea]?
**A.** change in vivo at 10 mg/kg (β3 human transgenic mice; mouse type homo): 4%; melting point: 189 °C

**Q.** For `CCCCCCCCNC(=O)Nc1ccc(S(=O)(=O)N2CCC(CNC[C@H](O)COc3ccc(O)cc3)CC2)cc1` [Example 69, 1-[4-(4-{[(2S)-2-Hydroxy-3-(4-hydroxy-phenoxy)-propylamino]-methyl}-piperidine-1-sulfonyl)-phenyl]-3-octyl-urea], which change in vivo at 10 mg/kg (β3 human transgenic mice; mouse type hetero) is on record?
**A.** 24%

**Q.** What about the change in vivo at 10 mg/kg (β3 human transgenic mice; mouse type homo) of the same compound?
**A.** 24%

**Q.** And the “Thermogenesis, Transgenic Mice, Gavage %” value (β3 human transgenic mice; mouse type hetero, gavage 30 mg/kg)?
**A.** 14%

**Q.** With `CCCCCCCCNC(=O)Nc1ccc(S(=O)(=O)N2CCC(CNC[C@H](O)COc3ccc(O)c4c3CCC(=O)N4)CC2)cc1` [Example 74, 1-[4-(4-{[(2S)-2-Hydroxy-3-(8-hydroxy-2-oxo-1,2,3,4-tetrahydro-quinolin-5-yloxy)-propylamino]-methyl}-piperidine-1-sulfonyl)-phenyl]-3-octyl-urea] as the compound, how does the change in vivo at 10 mg/kg (β3 human transgenic mice; mouse type homo) read?
**A.** 18%

**Q.** Which change in vivo at 10 mg/kg (β3 human transgenic mice; mouse type homo) does the source give for `O=C(NCCCc1cccs1)Nc1ccc(S(=O)(=O)N2CCC(CNC[C@H](O)COc3ccc(O)cc3)CC2)cc1` [Example 75, 1-[4-(4-1{[(2S)-2-Hydroxy-3-(4-hydroxy-phenoxy)-propylamino]-methyl}-piperidine-1-sulfonyl)-phenyl]-3-(3-thiophen-2-yl-propyl)-urea] here?
**A.** 5%

**Q.** For `O=C(NCc1cc(F)ccc1F)Nc1ccc(S(=O)(=O)N2CCC(CNC[C@H](O)COc3ccc(O)cc3)CC2)cc1` [Example 77, 1-(2,5-Difluoro-benzyl)-3-[4-(4-{[(2S)-2-hydroxy-3-(4-hydroxy-phenoxy)-propylamino]-methyl}-piperidine-1-sulfonyl)-phenyl]-urea], which change in vivo at 10 mg/kg (β3 human transgenic mice; mouse type homo) is on record?
**A.** 4%

**Q.** With `CS(=O)(=O)Nc1cc(OC[C@@H](O)CNCC2CCN(S(=O)(=O)c3ccc(NC(=O)NCc4cc(F)ccc4F)cc3)CC2)ccc1O` [Example 79, N-(5-{(2S)-3-[(1-{4-[3-(2,5-Difluoro-benzyl)-ureido]-benzenesulfonyl}-piperidin-4-ylmethyl)-amino]-2-hydroxy-propoxy}-2-hydroxy-phenyl)-methanesulfonamide] as the compound, how does the change in vivo at 10 mg/kg (β3 human transgenic mice; mouse type homo) read?
**A.** 10%

**Q.** Which EC50 (human β3 receptors) does the source give for `O=S(=O)(c1ccc(-n2cccn2)cc1)N1CCC(CNC[C@H](O)COc2ccc(O)cc2)CC1` [Example 93, 4-(2-Hydroxy-3-{[1-(4-pyrazol-1-yl-benzenesulfonyl)-piperidin-4-ylmethyl]-amino}-propoxy)-phenol] here?
**A.** 347 nM

**Q.** And the “IA(β3)” value (human β3 receptors)?
**A.** 0.99

**Q.** And the melting point?
**A.** 169 to 171 °C
